Test results published in patent publication US10561692B2, “Allergy-inhibiting sea grape extract, its preparation method and application thereof” (Teh Fong Min International Co., Ltd., priority 2016, dated 2020).

System: degranulation of cells to release β-hexosaminidase
Assay: β-hexosaminidase release from cells, determined by ELISA (allergy triggering / allergy induction)
Type: cell-based
Conditions: Ctr results of FIG. 1, stimulant alone
Experimental: […] Comparisons of the sea grape extract (I) alone group, refined sea grape (I) alone group and the control group.
Calcium ionophore A23187 stimulates degranulation of cells to release the allergic mediator, β-hexosaminidase, the concentration of β-hexosaminidase is determined by enzyme-linked immunosorbent assay (ELISA).

CNc1ccc2oc(C[C@H]3O[C@@]4(CC[C@H]3C)O[C@H]([C@H](C)C(=O)c3ccc[nH]3)[C@H](C)C[C@H]4C)nc2c1C(=O)O [Calcium ionophore A23187] was tested, and the “release of β-hexosaminidase” value was “induces release”.
